A short description of the data set: Solubility in toluene. In kind it is physicochemical. The conditions noted are these: based on a total weight of the solution.

SMILES strings stand for the structures.

In the case of `CCCCCCOc1ccc(C(=O)O)c(C(=O)O)c1` [Example 1, 4-hexyloxyphthalic Acid], the solubility in toluene result is “greater than 1 weight percent”.

Consider `CCCCCCCCOc1cc(C(=O)O)c(C(=O)O)cc1OCCCCCCCC` [Example 2, 4,5-dioctyloxyphthalic Acid], for which the solubility in toluene result was “greater than 1 weight percent”.

Source of the values: US10066159B2, “Composite nanoparticles including a phthalic acid derivative” (3M INNOVATIVE PROPERTIES COMPANY, priority 2013, dated 2018).
